Test results as given in the NIST ThermoML archive (doi:10.1016/j.jct.2012.12.022).
Values joined by “and” are separate entries in the source; they are usually repeats but may differ in a detail not shown here. Equal values may be shown once.

Experiment: mn = molality of the nth substance listed, in mol/kg
Conditions: 101 kPa, Liquid; for speed of sound: Sing-around technique in a fixed-path interferometer; for mass density: Vibrating tube method

O=C([O-])CC(O)(CC(=O)[O-])C(=O)[O-].[K+].[K+].[K+] [potassium citrate] + O
Conditions | mass density, 288.15 K [kg/m3] | mass density, 293.15 K [kg/m3] | mass density, 298.15 K [kg/m3] | mass density, 303.15 K [kg/m3] | speed of sound, 288.15 K [m/s] | speed of sound, 293.15 K [m/s] | speed of sound, 298.15 K [m/s] | speed of sound, 303.15 K [m/s]
m1 = 0.00361 | 999.9 | 998.989 | 997.839 | 996.386 | 1467.4 | 1483.1 | 1497.3 | 1509.7
m1 = 0.05427 | 1010.36 | 1009.25 | 1007.98 | 1006.52 | 1478.4 | 1493.8 | 1507.6 | 1519.7
m1 = 0.09681 | 1018.59 | 1017.45 | 1016.12 | 1014.61 | 1487.2 | 1502.1 | 1515.8 | 1527.7
m1 = 0.2001 | 1038.27 | 1037.36 | 1035.59 | 1034.01 | 1507 | 1521.7 | 1534.6 | 1545.9
m1 = 0.2914 | 1055.11 | 1053.58 | 1051.92 | 1050.18 | 1524.1 | 1537.8 | 1550.6 | 1561.2
m1 = 0.3859 | 1071.84 | 1070.62 | 1069.02 | 1066.43 | 1541.9 | 1555.4 | 1567.7 | 1577.7
m1 = 0.4948 | 1090.12 | 1088.43 | 1086.46 | 1084.57 | 1561.8 | 1572.8 | 1584.8 | 1595.2
m1 = 0.5799 | 1104.11 | 1102.38 | 1100.2 | 1098.17 | 1576.6 | 1588 | 1598.8 | 1609.1
m1 = 0.6983 | 1122.79 | 1120.89 | 1118.45 | 1116.27 | 1597.6 | 1608.2 | 1618.3 | 1627.5
m1 = 0.7576 | 1131.78 | 1129.85 | 1127.36 | 1125.04 | 1607.6 | 1618.9 | 1627.7 | 1637.2
m1 = 0.8939 | 1151.83 | 1149.58 | 1146.96 | 1144.2 | 1630.8 | 1641.3 | 1649.4 | 1657.5

CC(=O)NCC(=O)O [N-acetylglycine] + O
Conditions | mass density, 288.15 K | mass density, 293.15 K | mass density, 298.15 K | mass density, 303.15 K | speed of sound, 288.15 K | speed of sound, 293.15 K | speed of sound, 298.15 K [m/s] | speed of sound, 303.15 K
m1 = 0.085 | 1001.93 kg/m3 | 1000.99 kg/m3 | 999.799 kg/m3 | 998.366 kg/m3 | 1470.3 m/s | 1485.9 m/s | 1499.7 | 1511.7 m/s
m1 = 0.18 | 1005.02 kg/m3 and 1004.89 kg/m3 | 1004.02 kg/m3 and 1003.9 kg/m3 | 1002.78 kg/m3 and 1002.66 kg/m3 | 1001.3 kg/m3 and 1001.18 kg/m3 | 1475.4 m/s and 1470.6 m/s | 1490.5 m/s and 1490.7 m/s | 1504 | 1515.6 m/s and 1515.5 m/s
